Experimental data: patent EP0339176A1, “Suppository containing a non-steroidal anti-inflammatory medicament” (AMERICAN CYANAMID COMPANY, priority 1988, dated 1989)

Key:
[1] = Clinical bioavailability study of Fenbufen suppositories; format: in vivo; conditions: rectal
Protocol: Rectal administration of non-steroidal anti-inflammatory drugs can be clinically advantageous in some circumstances, in that it can prolong the effect of the drug. For example, when certain non-steroidal drugs are given rectally to a patient immediately prior to retiring for the night, sufficient blood levels of the drug are still available some 6-7 hours later to prevent morning stiffness. However, in the case of Fenbufen, the high level required for the nocturnal dose (450-600 mg) makes it difficult to deliver this drug successfully from the rectum. […] Accordingly, Fenbufen-containing suppository formulations for rectal administration have not been available, which is a disadvantage when Fenbufen would otherwise be the drug of choice for the patient.

[2] = Solubility of BPAA salts in water relative to the free acid; conditions: salt versus free acid

| bioavailability of the active ingredient from suppositories [1] | increase of the solubility of (1,1′-biphenyl)-4-acetic acid in water [2] | SMILES |
| --- | --- | --- |
| low bioavailability | – | O=C(O)CCC(=O)c1ccc(-c2ccccc2)cc1 [Fenbufen, 4-(biphenyl-4-yl)-4-oxo-butyric acid] |
| – | 8-9 fold | O=C(O)Cc1ccc(-c2ccccc2)cc1 [sodium] |
